In ChEMBL document CHEMBL1201862, “PubChem BioAssay data set” (2004):
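96-well plates; 48 h exposure; 5 concentrations. Endpoints by linear interpolation between flanking doses. Not reached: highest tested concentration assigned. GI50: concentration for 50% inhibition of growth.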 Activity calls are given as the source filed them. No stated cut-off is given here; in the data, active = GI50 up to about 1.1 µM and inactive = higher.

Experiments:
Test in all cases: growth of human tumour cells (NCI), 48 h
DLD-1 = system: DLD-1
HOP-18 = system: HOP-18
SNB-78 = system: SNB-78
XF498 = system: XF498
M19-MEL = system: M19-MEL
KM-20L2 = system: KM-20L2
DMS-114 = system: DMS-114
LXFL 529 = system: LXFL 529
RXF 631 = system: RXF 631

Measured: GI50

O=C(NC(Cc1ccc(I)cc1)C(=O)O)c1ccc(I)cc1 (centres undefined)
inactive: DLD-1 > 100 µM | HOP-18 > 100 µM | SNB-78 > 89.3 µM | XF498 > 66.4 µM | M19-MEL 72.3 µM | KM-20L2 > 94.8 µM | DMS-114 35.8 µM

COc1ccccc1C1C(Cl)C(=O)N1n1cnc2ccccc2c1=O (centres undefined)
inactive: DLD-1 > 100 µM | HOP-18 39.6 µM | SNB-78 > 100 µM | XF498 > 100 µM | M19-MEL > 100 µM | LXFL 529 > 100 µM | KM-20L2 > 100 µM | DMS-114 > 100 µM

COC(=O)N/N=C(/CC1(O)C(=O)Nc2ccc([N+](=O)[O-])cc21)c1ccccc1 (centres undefined)
inactive: DLD-1 46.7 µM | SNB-78 20.9 µM | XF498 19.4 µM | M19-MEL 66.5 µM | LXFL 529 36.8 µM | KM-20L2 > 100 µM | DMS-114 41.9 µM

Fc1ccccc1C1CC(C(c2ccccc2)c2ccccc2)=Nc2ccccc2S1 (centres undefined)
inactive: DLD-1 5.41 µM | HOP-18 16.2 µM | RXF 631 8.04 µM | XF498 13.7 µM | LXFL 529 4.23 µM | KM-20L2 6.53 µM | DMS-114 6.85 µM

COc1cc(C2C(C(=O)O)=C(COC(C)=O)Oc3cc4c(cc32)OCO4)cc(OC)c1OC (centres undefined)
inactive: HOP-18 > 100 µM | SNB-78 > 100 µM | RXF 631 > 100 µM | XF498 > 100 µM | M19-MEL > 100 µM | KM-20L2 > 100 µM | DMS-114 > 100 µM

c1c2c(cc(-n3nnc4c3CCCCCC4)c1-n1nnc3c1CCCCCC3)CCCCCC2
inactive: SNB-78 13.6 µM | RXF 631 10.1 µM | XF498 1.9 µM | M19-MEL 8.77 µM

COc1ccccc1Cc1nc(-c2ccccc2)nn(C2OC(COC(C)=O)C(OC(C)=O)C(OC(C)=O)C2OC(C)=O)c1=S (centres undefined)
inactive: DLD-1 > 31.3 µM | HOP-18 27.9 µM | SNB-78 18.2 µM | XF498 1.86 µM | M19-MEL 32.7 µM | KM-20L2 29.1 µM | DMS-114 27.6 µM

CC1C(=O)C(C)C(c2cccs2)N(N=O)C1c1cccs1 (centres undefined)
inactive: DLD-1 > 100 µM | HOP-18 11.4 µM | SNB-78 > 68.2 µM | XF498 14.8 µM | M19-MEL > 100 µM | KM-20L2 > 100 µM | DMS-114 95.1 µM

COc1ccc(/C=C2\CCNC2=O)cc1
inactive: DLD-1 > 100 µM | HOP-18 > 100 µM | SNB-78 > 100 µM | XF498 > 100 µM | M19-MEL > 100 µM | KM-20L2 > 100 µM | DMS-114 > 100 µM

CC(NC(=O)C(C)NC(=O)C(N)CCP(C)(=O)O)C(=O)O (centres undefined)
inactive: DLD-1 > 100 µM | HOP-18 > 100 µM | SNB-78 > 100 µM | XF498 > 100 µM | M19-MEL > 100 µM | KM-20L2 > 100 µM

Cc1nc2c(sc(=S)n2-c2ccccc2)c(=O)[nH]1
inactive: DLD-1 > 100 µM | HOP-18 > 100 µM | LXFL 529 > 100 µM

COc1cc(NC(C)CCCN)c2ncccc2c1 (centres undefined) [PRIMAQUINE PHOSPHATE]
inactive: DLD-1 76.6 µM | HOP-18 > 36.1 µM | SNB-78 > 100 µM | RXF 631 > 91.2 µM | XF498 35 µM | M19-MEL 47.5 µM | LXFL 529 60.7 µM | KM-20L2 57.5 µM | DMS-114 37.7 µM
